Assay results: patent publication US10316057B2, “Tandem facial amphiphiles” (WISCONSIN ALUMNI RESEARCH FOUNDATION, priority 2011, dated 2019)

Columns and labels:
Bacteriorhodopsin (bR) = biological target: T1, Bacteriorhodopsin (bR) (Halobacterium salinarum, UniProt P02945); assay: Stabilization assay for bacteriorhodopsin (absorbance at 554 nm); conditions: room temperature, 20 days; 0.2 wt % OTG+0.8 wt % TFA or 1.0 wt % OTG only
T1 construct: extract bR from the native purple membrane; endogenous in cells
T1 sequence (P02945 14-261 limits assumed): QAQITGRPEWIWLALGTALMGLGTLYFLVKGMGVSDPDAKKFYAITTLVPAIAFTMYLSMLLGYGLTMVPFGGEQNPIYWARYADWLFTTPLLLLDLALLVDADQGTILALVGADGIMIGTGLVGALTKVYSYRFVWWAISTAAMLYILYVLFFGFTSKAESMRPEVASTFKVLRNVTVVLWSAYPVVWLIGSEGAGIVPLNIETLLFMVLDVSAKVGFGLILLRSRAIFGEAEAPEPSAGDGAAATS
Protocol: Bacteriorhodopsin (bR) has been widely employed for assessment of new amphiphiles because this membrane protein is readily available, and stability can be assessed via spectrophotometry (absorbance at 554 nm). Following standard protocols (Bazzacco et al., Biomacromolecules 2009, 10, 3317-3326), 2.0 wt % octyl-β-D-thioglucoside (OTG) was used to extract bR from the native purple membrane. After removal of insoluble debris via ultracentrifugation, the bR solution was diluted with amphiphile-containing solutions to generate samples containing 0.2 wt % OTG+0.8 wt % TFA. A control sample had OTG added to give a total of 1.0 wt %. […] Parallel studies were carried out at different amphiphile concentrations as described in Example 3 below. DDM is not efficient at bR extraction from the native membrane but extracted bR can be stable in the presence of DDM (Milder et al., Biochemistry 1991, 30, 1751-1761).
The general procedure was followed according to the reported protocol of Bazzacco et al. (Biomacromolecules 10, 3317-3326 (2009)). Frozen aliquots of purple membranes containing bR at 184 μM were thawed and solubilized by incubation with octylthioglucoside (OTG) for 24 hr at 4° C. in a dark room. For the solubilization, OTG (CMC=0.28 wt %) was used at 2.0 wt % in 10 mM sodium phosphate (pH 6.9). […] BR stability in each TFA solutions was monitored by measuring absorbance at 554 nm for 20 days.

[1] = stated in the bR protocol; cited from earlier work

SMILES: CCCCCCCCS[C@@H]1O[C@H](CO)[C@@H](O)[C@H](O)[C@H]1O [OTG, octyl-β-D-thioglucoside, reference compound]
- bR stability over time (Bacteriorhodopsin (bR)): almost completely denatured by day 10
- CMC [1]: 0.28 wt %
